From the RepoRT retention time repository (doi:10.1021/acs.analchem.2c02893)

Experiment: RP, Thermo Scientific Acclaim RSLC 120 C18, 100 × 2.1 mm, 2.2 µm, 30 °C, 0.2 mL/min, estimated dead time 1.1 min; A: 90% water + 10% methanol + 0.01% formic acid + 5 mM ammonium formate, pH 3.61; B: methanol + 0.01% formic acid + 5 mM ammonium formate, pH 3.61; gradient (min/%B) 0/1 1/1 2/39 13/99.9 15/99.9 15.1/1 20.1/1
Conditions: stereoisomer not certain

| LC retention time [min] | SMILES |
| --- | --- |
| 4.28 | CC(=O)N=c1sc(S(N)(=O)=O)nn1C [Methazolamide] |
| 2.53 | Nc1nc(=S)c2[nH]cnc2[nH]1 [Thioguanine] |
| 10.1 | COc1ccsc1CN(C(=O)CCl)c1c(C)cccc1C [Thenylchlor] |
| 7.68 | CCCCNC(=O)NS(=O)(=O)c1ccc(C)cc1 [Tolbutamide] |
| 4.28 | COCCOCCOCCOC [Triglyme] |
| 5.17 | COc1c(N2CC3CCCNC3C2)c(F)cc2c(=O)c(C(=O)O)cn(C3CC3)c12 (stereo unspecified) [Moxifloxacin] |
| 9.36 | OCCN(CCO)c1nc(N2CCCCC2)c2nc(N(CCO)CCO)nc(N3CCCCC3)c2n1 [Dipyridamole] |
| 5.94 | NC(=O)N1c2ccccc2CC(O)c2ccccc21 (stereo unspecified) [Carbamazepine -10-Hydroxy] |
| 6.38 | CCOC(=O)CSc1nc(C(C)(C)C)nn1C(=O)N(C)C [Triazamate] |
| 3.64 | Clc1ccc2nsnc2c1NC1=NCCN1 [Tizanidine] |
| 4.73 | CS(=O)(=O)c1ccc(C(O)C(CF)NC(=O)C(Cl)Cl)cc1 (stereo unspecified) [Florfenicol] |
| 4.51 | CCCc1cc(=O)[nH]c(=S)[nH]1 [Propylthiouracil] |
| 3.76 | Cn1c(=O)c2c(ncn2CC(O)CO)n(C)c1=O (stereo unspecified) [Diprophylline] |
| 7.76 | CC(C)c1ccc(NC(N)=O)cc1 [Isoproturon-didemethyl (1-(4-Isoprophenyl)urea)] |
| 9.16 | CCNc1nc(NC(C)(C)C)nc(OC)n1 [Terbumeton] |
| 3.28 | c1ccc(CC2=NCCN2)cc1 [Tolazoline] |
| 9.44 | CCCCCCn1c(=O)c2c(ncn2C)n(C)c1=O [Pentifylline] |
| 5.08 | CCOC(=O)C(c1ccccc1)N1CCCCC1 (stereo unspecified) [Ethylphenidate] |
| 2.71 | CC(C)C(N)C(=O)OCC(CO)OCn1cnc2c(=O)[nH]c(N)nc21 (stereo unspecified) [Valganciclovir] |
| 6.91 | COc1ccccc1OCCNCC(O)COc1cccc2[nH]c3ccccc3c12 (stereo unspecified) [Carvedilol] |

Continued, compound first:

| SMILES | LC retention time [min] |
| --- | --- |
| O=C1Nc2ccc(Br)cc2C(c2ccccc2Cl)=NC1O (stereo unspecified) [Phenazepam- 3-Hydroxy] | 8.34 |
| COP(=S)(OC)Oc1ccc([N+](=O)[O-])cc1Cl [Dicapthon] | 10.5 |
| OC(Cn1cncn1)(c1ccc(F)cc1)c1ccccc1F (stereo unspecified) [Flutriafol] | 8.12 |
| N#Cc1nn(-c2c(Cl)cc(C(F)(F)F)cc2Cl)c(N)c1C(F)(F)F [Fipronil-desulfinyl] | 10.4 |
| CN(C)C1CSSSC1 [Thiocyclam] | 3.16 |
| CC(COc1ccc(C(C)(C)C)cc1)OS(=O)OCCCl (stereo unspecified) [Aramite (total)] | 12.2 |
| CCCCCn1cc(C(=O)Cc2ccc(OC)cc2)c2ccccc21 [JWH-201] | 11.6 |
| Cc1cccc(CC(C)N)c1 (stereo unspecified) [Amphetamine-3-methyl] | 5.17 |
| CC=C1CC(C)C(C)(O)C(=O)OCC2=CC[N+]3([O-])CCC(OC1=O)C23 (stereo unspecified) [Senecionine-N-oxide] | 5.07 |
| Cc1nnc2n1-c1ccc(Cl)cc1C(c1ccccc1)=NC2O (stereo unspecified) [Alprazolam-Hydroxy] | 7.81 |
| COP(=O)(NC(C)=O)SC (stereo unspecified) [Acephate] | 3.11 |
| CCOC(=O)C1=C(C)NC(C)=C(C(=O)OC)C1c1cccc(Cl)c1Cl (stereo unspecified) [Felodipine] | 11 |
| O=[N+]([O-])/N=C1\NCCN1Cc1ccc(Cl)nc1 [Imidacloprid] | 4.76 |
| O=C1NCCN1CCN1CCC(c2cn(-c3ccc(F)cc3)c3ccc(Cl)cc23)CC1 [Sertindole] | 9.26 |
| COc1ccc(OC)c(CC(C)N)c1 (stereo unspecified) [2-5-DMA] | 4.78 |
| CC(=O)OC1CN2CCC1CC2 (stereo unspecified) [Aceclidine] | 4.87 |
| CCS(=O)c1c(C#N)nn(-c2c(Cl)cc(C(F)(F)F)cc2Cl)c1N (stereo unspecified) [Ethiprole] | 9.32 |
| COc1cc(N)c(Cl)cc1C(=O)NC1CCN(CCCOc2ccc(F)cc2)CC1OC (stereo unspecified) [Cisapride] | 6.73 |
| NC1CC1c1ccccc1 (stereo unspecified) [Tranylcypromine] | 4.27 |
| CCC(N)Cc1c[nH]c2ccccc12 (stereo not drawn) [ET- alpha] | 5.04 |
| CC(C)(C)N(NC(=O)c1ccc(Cl)cc1)C(=O)c1ccccc1 [Halofenozide] | 9.25 |
| COP(=S)(OC)Oc1ccc(S(=O)(=O)N(C)C)cc1 [Famphur] | 7.99 |
| CC1CCCC(C)N1NC(=O)c1ccc(Cl)c(S(N)(=O)=O)c1 (stereo unspecified) [Clopamide] | 6.01 |

| SMILES | LC retention time [min] |
| --- | --- |
| COP(=S)(OC)Oc1ccc([N+](=O)[O-])c(C)c1 [Fenitrothion] | 9.92 |
| CC[N+](CC)(CC(=O)Nc1c(C)cccc1C)Cc1ccccc1 [Denatonium] | 12.3 |
| CNc1cnn(-c2cccc(C(F)(F)F)c2)c(=O)c1Cl [Norflurazon] | 8.51 |
| CN(C)CCOc1ccccc1Cc1ccccc1 [Phenyltoloxamine] | 7.29 |
| CCCCC(=O)OC1(C(=O)CO)C(C)CC2C3CCC4=CC(=O)C=CC4(C)C3(F)C(O)CC21C (stereo unspecified) [Betamethasone-17-valerate] | 11 |
| c1cc[c]([Sn+]([c]2ccccc2)[c]2ccccc2)cc1 [Fentin (triphenylstannylium) (1+)] | 10.4 |
| CCCc1nn(C)c2c(=O)[nH]c(-c3cc(S(=O)(=O)N4CCCCC4)ccc3OCC)nc12 [Sildenafil Norneo] | 10.9 |
| CN(C)CCCN1c2ccccc2Sc2ccc(C(F)(F)F)cc21 [Triflupromazine] | 9.27 |
| COCC(C)N(C(=O)C(=O)O)c1c(C)csc1C (stereo unspecified) [Dimethenamide-OXA] | 6.36 |
| CCOC(=O)C1(c2ccccc2)CCN(CCC(C#N)(c2ccccc2)c2ccccc2)CC1 [Diphenoxylate] | 10.4 |
| CCN(CC)C(=O)C1(c2ccccc2)CC1CN (stereo unspecified) [Milnacipran] | 5.73 |
| CCCSC(=O)N(CCC)CCC [Vernolate] | 11.5 |
| CN1CCCCC1Cn1cc(C(=O)c2ccccc2I)c2ccccc21 (stereo unspecified) [AM-2233] | 7.11 |
| CSC(C)=NOC(=O)N(C)SN(C)C(=O)ON=C(C)SC [Thiodicarb] | 7.64 |
| NCC(O)COc1ccc(CC(N)=O)cc1 (stereo unspecified) [Atenolol-desisopropyl] | 2 |
| CSC(=O)c1c(C(F)F)nc(C(F)(F)F)c(C(=O)SC)c1CC(C)C [Dithiopyr] | 11.7 |
| O=C1CN=C(c2ccccc2)c2cc(Cl)ccc2N1 [Diazepam-Nor] | 9.23 |
| NCC1(CC(=O)O)CCCCC1 [Gabapentin] | 3.78 |
| CCCc1nn(C)c2c(=O)[nH]c(-c3cc(S(=O)(=O)N4CCN(C)CC4)ccc3OCC)nc12 [Sildenafil] | 7.88 |
| CCOP(=S)(OCC)SCCS(=O)CC (stereo unspecified) [Disulfoton-sulfoxide] | 7.86 |
| COC(=O)C1C(O)CCC2CN3CCc4c([nH]c5ccccc45)C3CC21 (stereo unspecified) [Yohimbine] | 5.08 |
| CC12CCC3c4ccc(O)cc4CCC3C1CCC2O (stereo unspecified) | 12 |
| CCCNCC(O)COc1ccccc1C(=O)CCc1ccccc1 (stereo unspecified) [Propafenone] | 7.81 |
